According to patent US20240287136A1, “PHARMACEUTICAL COMPOSITION AND THE USE THEREOF IN THE TREATMENT OF AUTOIMMUNE DISEASES” (Singapore Health Services Pte. Ltd., priority 2016, published 2024):
Ends that are not written are not given here.

What was measured:
[1] = tested on: peripheral blood mononuclear cells (PBMCs); experiment: Immune deviation in PBMCs of trial patients (cytokine production, PD-1 expression); format: in vivo, human; details: for production of interleukin 10 (IL-10) / production of tumor necrosis factor α (TNFα): PBMCs / T cell subset of treated patients; for expression of Programmed Death 1 (PD-1) in PBMC: clinical responders, data not shown
Protocol: The model employed here is based on the hypothesis that immune tolerization to a T-cell epitope, such as SEQ ID NO. 1 that may be a contributor of inflammation in patients with rheumatoid arthritis, may lead to detectable clinical improvement. A total of 96 patients with early rheumatoid arthritis, who were not allowed on Methotrexate or biologics, were tested with mucosal tolerization to SEQ ID NO. 1. Patients are defined as “responders” if they meet the response criteria at any time during the study. […] SEQ ID NO.
1 (herein dubbed clinical responders) was observed (data not shown). PD-1 was first described as a contributor to T-cell anergy and exhaustion in chronic viral infections and cancer.
It is established that SEQ ID NO: 1 treatment was associated with an immune deviation in the T cell subset characterized by a decrease and an increase in tumor necrosis factor α (TNFα) and IL-10, respectively.

PBMCs = experiment: TaqMan gene expression of regulatory molecules in PBMCs incubated in vitro with SEQ ID NO. 1; format: cell-based, human; details: T0 PBMCs incubated with 10 mg/ml SEQ ID NO. 1 for 48 hours
Protocol: PBMCs from T0 were incubated in vitro with 10 mg/ml SEQ ID NO. 1 for 48 hours, and TaqMan was performed as described earlier. Data are expressed as 2(−dCT)×100 of GAPDH. PD-1, 0.3595+/−0.1033 vs 0.9310+/−0.1961, n=S, p0.0327 PD-L1, 0.1400+/−0.05308 vs 1.080+/−0.1926, n=6, p0.0005 CTLA-4, 0.2667+/−0.07313 vs 4.809+/−2.606, n=6, p0.0588 Foxp3, 0.2678+/−0.1267 vs 2.329+/−0.9527, n=6, p0.0422 P values were obtained by t-test.

[2] = tested on: patients with early rheumatoid arthritis; experiment: Phase II trial of mucosal tolerization to SEQ ID NO. 1: clinical outcome; format: in vivo, human
Protocol: The model employed here is based on the hypothesis that immune tolerization to a T-cell epitope, such as SEQ ID NO. 1 that may be a contributor of inflammation in patients with rheumatoid arthritis, may lead to detectable clinical improvement. A total of 96 patients with early rheumatoid arthritis, who were not allowed on Methotrexate or biologics, were tested with mucosal tolerization to SEQ ID NO. 1. Patients are defined as “responders” if they meet the response criteria at any time during the study. […] SEQ ID NO. […]

PD-1+Treg and PD-1− Treg = experiment: TaqMan RNA expression in sorted total, PD-1+ and PD-1− Treg of clinical responders; format: in vivo, human; details: SEQ ID NO. 1 clinical responders at Tend
Protocol: FIG. 5. PD-1 actively contributes to Treg function: a. Treg ability to suppress Teff proliferation was determined by CFSE dilution. A representative clinical responder is depicted. Treg cells were sorted by FACS according to the phenotype depicted in the table and incubated with Teff in the presence of 10 mg/ml of SEQ ID NO. 1. b. […] 1. c. […] 1. Line with white area under the curve depicts T0, grey area depicts Tend. T(x)=Probability binning. % PD-1+Treg is expressed as percentage of the total Treg population (insets in both panels). d. […] PD-1+Treg cells were stained by FACS after a 5-day incubation with Teff and APC in the presence or absence of anti-PD1 antibody. Details in methods. Line with white area under the curve depicts anti-PD1 treated, grey area depicts untreated. T(x)=Probability binning. e. pSTAT5 was examined in Treg via immunofluorescent microscopy. Cells, staining and slides were prepared according to procedures outlined in the methods. The average pSTAT5 expression per cell for anti-PD-1 treatment, as determined by the average integral density per unit area, was calculated using ImageJ (Rasband, W. S., ImageJ, http://rsb.info.nih.gov/ij/, 1997-2009). Untreated vs. anti-PD-1 treated: 38.79 vs. 33.07, standard deviation 4.27 vs. […], t-test p<0.0001. f. […] Teff were stained by FACS after a 5-day incubation in the presence or absence of anti-PD1 antibody. Details in methods. Line with white area under the curve depicts anti-PD1 treated, grey area depicts untreated. T(x)=Probability binning. g. Total Treg, PD-1+Treg and PD-1− Treg from clinical responders (n=S) at Tend were sorted and RNA expression of CTLA-4, FoxP3, IL-10 and TGF-β was measured by TaqMan. Data are expressed as 2(−dCT)×100 of GAPDH. […] 1 clinical responders (18.99+/−3.412 vs 2.693+/−1.434, n=S p=0.0130).
To further characterize function of PD-1+Treg, mRNA was extracted from FACS-sorted CD4+/CD25++/CD127−total Treg, PD-1+Treg and PD-1-Treg and tested by qPCR for expression of various genes associated with Treg function.

[3] = placebo clinical non-responders

In the case of QKRAAYDQYGHAAFE-NH2 [SEQ ID NO. 1], the “production of interleukin 10 (IL-10)” value [1] is reported as “increased production”, the “production of tumor necrosis factor α (TNFα)” value [1] is reported as “decreased production” and the “production of interleukin 10 (IL-10)” value ([1]; listed as SEQ ID NO: 1) is reported as “increase”. For the same substance, the “production of tumor necrosis factor α (TNFα)” value ([1]; listed as SEQ ID NO: 1) was “decrease”, the “expression of Programmed Death 1 (PD-1) in PBMC” value [1] was “significantly higher expression” and the “expression of Programmed Death 1 (PD-1) in PBMC” value ([1]; listed as SEQ ID NO: 1) was “significantly higher levels”. For the same substance, the “CTLA-4 gene expression in PBMCs” value (PBMCs; clinical responders) was 4.809+/−2.606 2(−dCT)×100 of GAPDH, the “Foxp3 gene expression in PBMCs” value (PBMCs; clinical responders) was 2.329+/−0.9527 2(−dCT)×100 of GAPDH and the “PD-1 gene expression in PBMCs” value (PBMCs; clinical responders) was 0.9310+/−0.1961 2(−dCT)×100 of GAPDH. For the same substance, the “PD-L1 gene expression in PBMCs” value (PBMCs; clinical responders) was 1.080+/−0.1926 2(−dCT)×100 of GAPDH, the “CTLA-4 gene expression in PBMCs” value (PBMCs; [3]) was 0.2667+/−0.07313 2(−dCT)×100 of GAPDH and the “Foxp3 gene expression in PBMCs” value (PBMCs; [3]) was 0.2678+/−0.1267 2(−dCT)×100 of GAPDH. The “PD-1 gene expression in PBMCs” value (PBMCs; [3]) was 0.3595+/−0.1033 2(−dCT)×100 of GAPDH, the “PD-L1 gene expression in PBMCs” value (PBMCs; [3]) was 0.1400+/−0.05308 2(−dCT)×100 of GAPDH and the “safety of mucosal tolerization” value ([2]; 96 patients with early rheumatoid arthritis) was “safe”. The clinical efficacy ([2]; 96 patients with early rheumatoid arthritis, no Methotrexate or biologics) was “comparable to the use of Methotrexate alone”, the joint pain ([2]; after treatment withdrawal (FIG. 11E)) was “Sustained improvements” and the joint swelling ([2]; after treatment withdrawal (FIG. 11F)) was “Sustained improvements”. For the same substance, the “Physician global assessment scores” value ([2]; one month after clinical withdrawal, versus placebo (FIG. 11D)) was “performed better than placebo”, the “CTLA-4, FoxP3 and IL-10 expression between the different subsets of Treg” value (PD-1+Treg and PD-1− Treg) was “did not differ” and the “TGF-β gene expression in PD-1+Treg” value (PD-1+Treg and PD-1− Treg) was 18.99+/−3.412 2(−dCT)×100 of GAPDH. For the same substance, the “TGF-β gene expression in PD-1− Treg” value (PD-1+Treg and PD-1− Treg) was 2.693+/−1.434 2(−dCT)×100 of GAPDH.
